{
  "source": "ChEMBL document CHEMBL5346920",
  "about": "“Development of the \"hidden\" multi-target-directed ligands by AChE/BuChE for the treatment of Alzheimer's disease” (Eur J Med Chem, 2023)",
  "key": {"[1]": {"experiment": "Selectivity index, ratio of IC50 for inhibition of electric eel AChE to IC50 for inhibition of equine serum BuChE"}, "PC-12 [2]": {"system": "PC-12", "experiment": "Neuroprotective activity against Amyloid beta(25 to 35)-induced cell injury in rat PC12 cells assessed as cell viability at 5 uM pretreated for 2 hrs followed by incubation with Abeta(25 to 35) for 24 hrs by CCK-8 assay (reference value: 41 to 58.6%)", "format": "functional", "conditions": "time 26 hrs, read-out: Activity"}, "[3]": {"experiment": "Metal chelating activity assessed as compound-Zn2+ complex formation at 37.5 uM incubated for 30 mins in presence of ZnCl2 by UV-Vis spectrometry"}, "[4]": {"experiment": "Stability of the compound in blank gastric juice assessed as parent compound remaining at 1 mg/ml measured after 8 hrs by UPLC-MS/MS analysis", "format": "ADME", "conditions": "read-out: Stability"}, "Danio rerio [5]": {"species": "Danio rerio", "experiment": "Antialzheimer activity against AlCl3-induced Alzheimer's disease zebra fish model assessed as total distance moved at 0.0195 ug/ml treated for 24 hrs and measured after 24 hrs under dark environment (reference value: 312 cm)", "format": "functional", "conditions": "dose 0.0195 µg/ml; time 48 hrs"}, "Danio rerio [6]": {"species": "Danio rerio", "experiment": "Neuroprotective activity against AlCl3-induced Alzheimer's disease zebra fish model assessed as increase in ACh content at 0.0049 to 0.078 ug/ml treated for 24 hrs and measured after 24 hrs", "format": "functional, organism-based", "conditions": "dose 0.0049-0.078 µg/ml, time 48.0 hrs"}, "[7]": {"experiment": "Stability of the compound in rat plasma assessed as parent compound remaining at 10 ug/ml measured after 3 hrs by UPLC-MS/MS analysis", "format": "ADME, cell-free", "conditions": "at 10 µg/mL, read-out: Stability"}, "Danio rerio [8]": {"species": "Danio rerio", "experiment": "Antialzheimer activity against AlCl3-induced Alzheimer's disease zebra fish model assessed as total distance moved at 0.078 ug/ml treated for 24 hrs and measured after 24 hrs under alternating light dark stimuli conditions (reference value: 543 cm)", "format": "functional", "conditions": "dose 0.078 µg/ml; time 48 hrs"}, "Acetylcholinesterase": {"molecular_target": "Acetylcholinesterase (Electrophorus electricus, UniProt O42275)", "sequence (O42275 whole entry)": "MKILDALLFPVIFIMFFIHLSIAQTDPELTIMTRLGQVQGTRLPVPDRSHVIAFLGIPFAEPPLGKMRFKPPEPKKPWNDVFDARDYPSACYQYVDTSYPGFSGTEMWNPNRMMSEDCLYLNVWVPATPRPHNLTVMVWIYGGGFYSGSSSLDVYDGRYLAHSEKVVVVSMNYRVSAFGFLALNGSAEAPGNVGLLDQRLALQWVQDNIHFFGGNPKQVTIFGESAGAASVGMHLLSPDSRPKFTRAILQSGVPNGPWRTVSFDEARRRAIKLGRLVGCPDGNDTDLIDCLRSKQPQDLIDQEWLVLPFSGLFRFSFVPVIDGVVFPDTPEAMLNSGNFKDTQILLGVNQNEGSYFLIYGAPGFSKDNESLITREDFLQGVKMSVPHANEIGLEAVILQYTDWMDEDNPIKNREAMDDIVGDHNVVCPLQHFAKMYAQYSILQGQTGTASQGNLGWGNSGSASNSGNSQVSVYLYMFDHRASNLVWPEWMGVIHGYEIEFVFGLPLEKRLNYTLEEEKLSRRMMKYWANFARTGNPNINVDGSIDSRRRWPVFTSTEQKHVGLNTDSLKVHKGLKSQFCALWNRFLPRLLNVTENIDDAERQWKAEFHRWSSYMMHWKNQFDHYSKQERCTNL", "experiment": "Drug metabolism assessed as electric eel AChE-mediated 3-(4-fluorophenyl)-1-(2-hydroxyphenyl)prop-2-en-1-one formation by measuring decarbamoylation rate constant treated with 0.25U AChE for 9 mins by HPLC analysis", "format": "ADME", "conditions": "0.15 h"}, "PC-12 [9]": {"system": "PC-12", "experiment": "Neuroprotective activity against Amyloid beta(25 to 35)-induced cell injury in rat PC12 cells assessed as cell viability at 10 uM pretreated for 2 hrs followed by incubation with Abeta(25 to 35) for 24 hrs by CCK-8 assay (reference value: 41 to 58.6%)", "format": "functional", "conditions": "time 26 hrs, read-out: Activity"}, "Homo sapiens": {"species": "Homo sapiens", "experiment": "Selectivity index, ratio of IC50 for inhibition of human recombinant MAO-A expressed in baculovirus-infected BTI cells to IC50 for inhibition of human recombinant MAO-B expressed in baculovirus-infected BTI cells"}, "Danio rerio [10]": {"species": "Danio rerio", "experiment": "Antialzheimer activity against AlCl3-induced Alzheimer's disease zebra fish model assessed as total distance moved at 0.078 ug/ml treated for 24 hrs and measured after 24 hrs under light environment (reference value: 230 cm)", "format": "functional", "conditions": "dose 0.078 µg/ml; time 48 hrs"}, "Danio rerio [11]": {"species": "Danio rerio", "experiment": "Antialzheimer activity against AlCl3-induced Alzheimer's disease zebra fish model assessed as total distance moved at 0.078 ug/ml treated for 24 hrs and measured after 24 hrs under dark environment (reference value: 312 cm)", "format": "functional", "conditions": "dose 0.078 µg/ml; time 48 hrs"}, "[12]": {"molecular_target": "T1, Amine oxidase [flavin-containing] B (Homo sapiens, UniProt P27338)", "T1 sequence (P27338 whole entry)": "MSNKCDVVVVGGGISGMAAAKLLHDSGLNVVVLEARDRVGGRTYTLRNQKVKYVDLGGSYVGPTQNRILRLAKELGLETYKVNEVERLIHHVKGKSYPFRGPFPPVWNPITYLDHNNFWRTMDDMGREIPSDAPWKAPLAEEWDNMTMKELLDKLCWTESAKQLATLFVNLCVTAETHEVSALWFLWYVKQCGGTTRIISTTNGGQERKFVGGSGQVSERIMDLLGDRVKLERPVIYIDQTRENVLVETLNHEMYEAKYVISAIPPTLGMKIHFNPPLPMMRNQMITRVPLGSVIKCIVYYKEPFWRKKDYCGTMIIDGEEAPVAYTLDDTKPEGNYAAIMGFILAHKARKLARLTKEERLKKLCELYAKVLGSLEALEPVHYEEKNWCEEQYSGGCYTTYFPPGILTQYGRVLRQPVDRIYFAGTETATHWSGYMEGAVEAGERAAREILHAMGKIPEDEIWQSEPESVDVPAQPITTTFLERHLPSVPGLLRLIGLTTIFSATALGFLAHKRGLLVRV", "experiment": "Inhibition of human recombinant MAO-B expressed in baculovirus-infected BTI cells using kynuramine as substrate incubated for 30 mins by fluorescence based analysis"}, "PC-12 [13]": {"system": "PC-12", "experiment": "Neuroprotective activity against Amyloid beta(25 to 35)-induced cell injury in rat PC12 cells assessed as cell viability at 20 uM pretreated for 2 hrs followed by incubation with Abeta(25 to 35) for 24 hrs by CCK-8 assay (reference value: 41 to 58.6%)", "format": "functional", "conditions": "time 26 hrs, read-out: Activity"}, "[14]": {"experiment": "Acute toxicity in zebra fish assessed as effect on liver fluorescence area at 0.3125 to 1.25 ug/ml and measured at 120 hpf by microscopic analysis", "set-up": "species or system Danio rerio", "conditions": "zebrafish; dose 0.3125-1.25 µg/ml"}, "Danio rerio [15]": {"species": "Danio rerio", "experiment": "Neuroprotective activity against AlCl3-induced Alzheimer's disease zebra fish model assessed as distance velocity at 0.0195 ug/ml treated for 24 hrs and measured after 24 hrs under alternating light dark stimuli conditions (reference value: 9 cm/min)", "format": "functional", "conditions": "dose 0.0195 µg/ml; time 48 hrs"}, "[16]": {"molecular_target": "Cholinesterase (Equus caballus) (UniProt P81908)", "sequence (P81908 whole entry)": "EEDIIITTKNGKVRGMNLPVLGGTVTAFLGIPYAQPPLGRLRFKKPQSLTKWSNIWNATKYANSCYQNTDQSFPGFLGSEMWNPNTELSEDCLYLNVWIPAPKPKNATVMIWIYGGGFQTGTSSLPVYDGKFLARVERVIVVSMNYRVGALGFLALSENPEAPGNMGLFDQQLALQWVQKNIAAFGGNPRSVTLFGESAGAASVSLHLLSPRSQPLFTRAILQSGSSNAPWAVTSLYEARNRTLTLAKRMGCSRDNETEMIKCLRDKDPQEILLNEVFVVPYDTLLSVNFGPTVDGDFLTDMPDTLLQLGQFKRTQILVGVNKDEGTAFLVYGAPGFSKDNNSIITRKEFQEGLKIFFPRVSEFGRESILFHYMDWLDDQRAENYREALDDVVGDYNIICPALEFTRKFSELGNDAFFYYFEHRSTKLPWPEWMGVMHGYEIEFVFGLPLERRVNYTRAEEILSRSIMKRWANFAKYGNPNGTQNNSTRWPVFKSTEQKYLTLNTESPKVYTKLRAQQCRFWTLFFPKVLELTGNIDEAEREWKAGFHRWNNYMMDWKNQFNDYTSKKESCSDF", "experiment": "Reversible inhibition of equine serum BuChE assessed as enzyme activity using butyrylthiocholine chloride as substrate measured after dilution to 0.1XIC50 by Ellman's method", "format": "cell-free", "set-up": "scale not given: the % may be the effect or the level left"}, "Danio rerio [17]": {"species": "Danio rerio", "experiment": "Neuroprotective activity against AlCl3-induced Alzheimer's disease zebra fish model assessed as inhibition of AlCl3-induced AChE activity at 0.0049 to 0.078 ug/ml treated for 24 hrs and measured after 24 hrs", "format": "functional, organism-based", "conditions": "dose 0.0049-0.078 µg/ml, time 48.0 hrs"}, "Danio rerio [18]": {"species": "Danio rerio", "experiment": "Antialzheimer activity against AlCl3-induced Alzheimer's disease zebra fish model assessed as total distance moved at 0.0195 ug/ml treated for 24 hrs and measured after 24 hrs under light environment (reference value: 230 cm)", "format": "functional", "conditions": "dose 0.0195 µg/ml; time 48 hrs"}, "[19]": {"experiment": "Stability of the compound in artificial intestinal juice assessed as parent compound remaining at 1 mg/ml measured after 8 hrs by UPLC-MS/MS analysis", "format": "ADME", "conditions": "read-out: Stability"}, "[20]": {"experiment": "Metal chelating activity assessed as compound-Al3+ complex formation by measuring maximum absorption wavelength shift from 316 to 434 nm at 37.5 uM incubated for 30 mins in presence of AlCl3 by UV-Vis spectrometry"}, "BV-2": {"system": "BV-2", "experiment": "Anti-inflammatory activity against LPS-stimulated mouse BV-2 cells assessed as inhibition of LPS-induced NO production incubated for 24 hrs in presence of LPS", "format": "functional, cell-based", "conditions": "dose 1-9 µM"}, "[21]": {"experiment": "Stability of the compound in artificial gastric juice assessed as parent compound remaining at 1 mg/ml measured after 8 hrs by UPLC-MS/MS analysis", "format": "ADME", "conditions": "read-out: Stability"}, "[22]": {"experiment": "Stability of the compound in rat liver microsomes assessed as parent compound remaining at 10 ug/ml measured after 60 mins by UPLC-MS/MS analysis", "format": "ADME, Microsome", "conditions": "at 10 µg/mL, read-out: Stability"}},
  "note": "The source made the active and inactive calls. The rule behind the calls is not given here.",
  "data": [
    {"smiles": "CCN(C)C(=O)Oc1ccccc1C(=O)/C=C/c1ccc(F)cc1", "values": [
      {"measurement": "Ratio IC50", "setting": "[1]", "result": 0.43},
      {"measurement": "viability at 5 µM", "setting": "PC-12 [2]", "result": 70.9, "unit": "%"},
      {"measurement": "Activity", "setting": "[3]", "result": "inactive"},
      {"measurement": "remaining at 8 h, 1 mg/ml", "setting": "[4]", "result": 103, "unit": "%"},
      {"measurement": "Activity", "setting": "Danio rerio [5]", "result": 577, "unit": "cm"},
      {"measurement": "Activity", "setting": "Danio rerio [6]", "result": "Active"},
      {"measurement": "remaining at 3 h, 10 ug/ml", "setting": "[7]", "result": 99.3, "unit": "%"},
      {"measurement": "Activity", "setting": "Danio rerio [8]", "result": 763, "unit": "cm"},
      {"measurement": "K", "setting": "Acetylcholinesterase", "result": 5.2, "unit": "M⁻¹ s⁻¹"},
      {"measurement": "viability at 10 µM", "setting": "PC-12 [9]", "result": 75, "unit": "%"},
      {"measurement": "Ratio IC50", "setting": "Homo sapiens", "result": 20.1},
      {"measurement": "Activity", "setting": "Danio rerio [10]", "result": 226, "unit": "cm"},
      {"measurement": "Activity", "setting": "Danio rerio [11]", "result": 537, "unit": "cm"},
      {"measurement": "IC50", "setting": "[12]", "result": 1900, "unit": "nM"},
      {"measurement": "viability at 20 µM", "setting": "PC-12 [13]", "result": 79.7, "unit": "%"},
      {"measurement": "Activity", "setting": "[14]", "result": "Non-Toxic"},
      {"measurement": "Activity", "setting": "Danio rerio [15]", "result": 15.3, "unit": "cm/min"},
      {"measurement": "Activity", "setting": "[16]", "result": 52.6, "unit": "%"},
      {"measurement": "Activity", "setting": "Danio rerio [17]", "result": "Active"},
      {"measurement": "Activity", "setting": "Danio rerio [18]", "result": 344, "unit": "cm"},
      {"measurement": "remaining at 8 h, 1 mg/ml", "setting": "[19]", "result": 104, "unit": "%"},
      {"measurement": "Activity", "setting": "[20]", "result": "inactive"},
      {"measurement": "Activity", "setting": "BV-2", "result": "Dose-Dependent Effect"},
      {"measurement": "remaining at 8 h, 1 mg/ml", "setting": "[21]", "result": 97.3, "unit": "%"},
      {"measurement": "remaining at 1 h, 10 ug/ml", "setting": "[22]", "result": 96.2, "unit": "%"}
    ]}
  ]
}
